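Tested at 5 concentrations; 48 h exposure; 96-well plates; endpoints linearly interpolated, else capped at highest concentration. GI50: concentration for 50% inhibition of growth.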 The source made the active and inactive calls. No stated cut-off is given here; in the data, active = GI50 up to about 1.1 µM and inactive = higher.
Assays:
Assay in all cases: NCI-60 cell line screen, 48 h
[1] = system: 786-0
[2] = system: A498
[3] = system: CAKI-1
[4] = system: CCRF-CEM
[5] = system: COLO 205
[6] = system: DU-145
[7] = system: EKVX
[8] = system: HCC 2998
[9] = system: HL-60
[10] = system: HT-29
[11] = system: K562
[12] = system: MCF7
[13] = system: MOLT-4
[14] = system: OVCAR-5
[15] = system: OVCAR-8
[16] = system: SF-268
[17] = system: SF-295
[18] = system: SK-MEL-5
[19] = system: SW-620
[20] = system: U-251

Row | SMILES | GI50 [1] | GI50 [2] | GI50 [3] | GI50 [4] | GI50 [5] | GI50 [6] | GI50 [7] | GI50 [8] | GI50 [9] | GI50 [10] | GI50 [11] | GI50 [12] | GI50 [13] | GI50 [14] | GI50 [15] | GI50 [16] | GI50 [17] | GI50 [18] | GI50 [19] | GI50 [20]
1 | COC(=O)C1=C(OC(=O)/C=C/c2ccccc2)C(C(=O)OC)[C@@]2(O)[C@@H](C(=O)OC)[C@H](C)C[C@@H]1[C@@H]2C(=O)OC (stereo not given in full) | 17.1 µM (inactive) | 13.3 µM (inactive) | 15.7 µM (inactive) | 56.5 µM (inactive) | 28.8 µM (inactive) | 18 µM (inactive) | 15.5 µM (inactive) | 19.4 µM (inactive) | 39.2 µM (inactive) | 24.7 µM (inactive) | > 100 µM (inactive) | 19.3 µM (inactive) | > 100 µM (inactive) | 11.7 µM (inactive) | 14.2 µM (inactive) | 24.2 µM (inactive) | 19.9 µM (inactive) | 26.9 µM (inactive) | 28.3 µM (inactive) | 18.8 µM (inactive)
2 | c1ccc2c(OCC3CO3)ccc(OCC3CO3)c2c1 (stereo not given) | 2.11 µM (inactive) | 17 µM (inactive) | 1.74 µM (inactive) | 0.27 µM (active) | 10.6 µM (inactive) | 2.36 µM (inactive) | 17.4 µM (inactive) | 11.8 µM (inactive) | 0.321 µM (active) | 4.82 µM (inactive) | 2 µM (inactive) | 0.897 µM (active) | 0.352 µM (active) | 11.2 µM (inactive) | 2.2 µM (inactive) | 0.571 µM (active) | 2.86 µM (inactive) | 6.64 µM (inactive) | 1.26 µM (inactive) | 2.32 µM (inactive)
3 | CN(C)Cc1cc(C(=O)/C=C/c2ccc(/C=C/C(=O)c3cc(CN(C)C)c(O)c(CN(C)C)c3)cc2)cc(CN(C)C)c1O | 19.6 µM (inactive) | 57.9 µM (inactive) | 39 µM (inactive) | 9.57 µM (inactive) | 14.4 µM (inactive) | 38.5 µM (inactive) | 39.2 µM (inactive) | 16.9 µM (inactive) | 14.1 µM (inactive) | 13.5 µM (inactive) | 25.3 µM (inactive) | 9.42 µM (inactive) | 12.7 µM (inactive) | 17.4 µM (inactive) | 49.3 µM (inactive) | 27.5 µM (inactive) | 29.2 µM (inactive) | 42.9 µM (inactive) | 20.8 µM (inactive) | 15.6 µM (inactive)

Source: ChEMBL document CHEMBL1201862, “PubChem BioAssay data set” (2004)
